Results: patent US11952364B2, “TRK inhibitors useful as anticancer drugs” (TYLIGAND BIOSCIENCE (SHANGHAI) LIMITED, priority 2018, dated 2024)

These molecules were tested on Ba/F3 LMNA-NTRK1-G667C cells (assay: Proliferation of Ba/F3 LMNA-NTRK1-G667C cells (CellTiter-Glo)). Conditions: Mus musculus, BaF3, 72 h, Table 4; 72 hours; read-out: Ba/F3 LMNA-NTRK1-G667C, IC50.
Type: cell-based, mouse
From the text: Ba/F3 LMNA-NTRK1-G667C is a stable transgenic cell line constructed by KYinno Biotechnology Co., Ltd. on mouse primary B cell Ba/F3 wherein NTRK1 has a mutation of G to Cat position 667 and is highly expressed and fused with LMNA to form LMNA-NTRK1-G667C. • [Test method]: Promega's CellTiter-Glo® Luminescent Cell Viability Assay kit was used to evaluate the inhibitory activity of the compounds on the proliferation of Ba/F3 LMNA-NTRK1-G667C cells. • [Instrument]: Spectramax M3 multifunctional microplate reader from Molecular Devices. • [Test materials]: Ba/F3 LMNA-NTRK1-G667C cell line (constructed by KYinno Co., Ltd. (Beijing)), 96-well transparent flat-bottomed black-walled cell culture plate (Corning, cat #3603), RPMI-1640 media (GE, cat #SH30027.01), fetal bovine serum FBS (Thermo Fisher, cat #10099-141), CellTiter-Glo® Luminescent Cell Viability Assay kit (Promega, cat #G7572), PBS (Solarbio, cat #P1020), DMSO (Sigma, cat #D2650). • [Experimental procedure]: When resuscitating Ba/F3 LMNA-NTRK1-G667C cells, the freezing tube was quickly shaken in a 37° C. water bath to melt within 1 minute. The thawed cell suspension was mixed uniformly with RPMI1640 medium containing 10% FBS, centrifuged at 1000 rpm for 5 minutes, and the supernatant discarded. 5 mL of complete medium (RPMI1640 medium with 10% FBS) was taken to resuspend the cell pellets, charged into a cell culture flask with a bottom area of 25 cm^2, and incubated in a cell incubator at 37° C., 95% humidity and 5% CO2. Cells were allowed to passage when the number of cells reached about 10^6 cells/mL. For cell passage, the old cell suspension was directly pipetted evenly, 1/5 of the cell suspension was kept, 4 mL of new complete medium was added, after pipetting evenly, the cell flask was placed in the cell incubator for further culturing. Cell plating was performed when the number of cells reached about 10^6 cells/mL again. For cell plating, 1/5 of the cell suspension was kept for further culturing as in the cell passage method, and the remaining 4/5 of the cell suspension was placed in a 15 mL centrifuge tube, detected for cell viability by Trypan blue exclusion method to ensure that cell viability was above 90%. A cell suspension with a density of 5.56×10^4 viable cells/mL was prepared with complete medium, and 90 μL of such cell suspension was added to a 96-well cell culture plate to obtain the cell density of 5000 viable cells/mL in the cell culture plate. A control group containing no cells, no compound and only complete medium (i.e. culture medium control) and a control group containing no compound but containing cells (i.e. cell control) were set. The cell plate was placed in a cell incubator overnight. The 10 mM compound stock solution in DMSO was first serially diluted with DMSO at a dilution factor of 3.16 times, to obtain 9 concentrations, and the 10th concentration was set as DMSO control without compound. Then, PBS was used to dilute the DMSO solutions of compounds of different concentrations, at a dilution factor of 100 times, so that the DMSO concentration in the compound solution of each concentration was 1%. Finally, 10 μL of each of the above solutions was added to the corresponding cell culture plate, so that the initial compound concentration was 10 μM, with the remaining concentrations being successively diluted at a dilution factor of 3.16 times, and the DMSO content in the cell culture plate was 0.1%. The cell plate was placed in a cell incubator and cultured for 72 hours. For endpoint detection, the CellTiter-Glo reagent was melted, and the cell plate was moved to room temperature to equilibrate for 30 minutes, added with 100 μL of CellTiter-Glo for each well, and shaken on an orbital shaker for 5 minutes to fully lyse the cells. The plate was kept at room temperature for 20 minutes to stabilize the luminescence signal, and the luminescence value of each well was scanned with a multi-functional microplate reader at full wavelength. • [Test samples] […]
In the case of Cn1ncc2cc(Oc3ccc(NC(=O)c4ccc(C(F)(F)F)n(-c5ccc(F)cc5)c4=O)cc3F)c(-c3cn[nH]c3)cc21 [Example 1, N-(3-fluoro-4-(1-methyl-6-(1H-pyrazol-4-yl)-1H-indazol-5-yloxy)phenyl)-1-(4-fluorophenyl)-6-trifluoromethyl-2-oxo-1,2-dihydmpyridine-3-carboxamide monomethanesulfonate], the IC50 is reported as 2 nM.
For Cn1ncc2cc(Oc3ccc(NC(=O)c4ccc(C5CC5)n(-c5ccc(F)cc5)c4=O)cc3F)c(-c3cn[nH]c3)cc21 [Example 2, N-(3-fluoro-4-(1-methyl-6-(1H-pyrazol-4-yl)-1H-indazol-5-yloxy)phenyl)-1-(4-fluorophenyl)-6-cyclopropyl-2-oxo-1,2-dihydmpyridine-3-carboxamide], the IC50 was 1.1 nM.
For CCn1ncc2cc(Oc3ccc(NC(=O)c4ccc(C)n(-c5ccc(F)cc5)c4=O)cc3F)c(-c3cn[nH]c3)cc21 [Example 3, N-(3-fluoro-4-(1-ethyl-6-(1H-pyrazol-4-yl)-1H-indazol-5-yloxy)phenyl)-1-(4-fluorophenyl)-6-methyl-2-oxo-1,2-dihydmpyridine-3-carboxamide], the IC50 was 1.6 nM.
Cc1ccc(C(=O)Nc2ccc(Oc3cc4cnn(C(C)C)c4cc3-c3cn[nH]c3)c(F)c2)c(=O)n1-c1ccc(F)cc1 [Example 4, N-(3-fluoro-4-(1-isopropyl-6-(1H-pyrazol-4-yl)-1H-indazol-5-yloxy)phenyl)-1-(4-fluorophenyl)-6-methyl-2-oxo-1,2-dihydmpyridine-3-carboxamide] was tested, and the IC50 was 2.8 nM.
For CCc1ccc(C(=O)Nc2ccc(Oc3cc4cnn(C)c4cc3-c3cn[nH]c3)c(F)c2)c(=O)n1-c1ccc(F)cc1 [Example 5, N-(3-fluoro-4-(1-methyl-6-(1H-pyrazol-4-yl)-1H-indazol-5-yloxy)phenyl)-1-(4-fluorophenyl)-6-ethyl-2-oxo-1,2-dihydropyridine-3-carboxamide], the IC50 was under 1 nM.
Work on CC(C)c1ccc(C(=O)Nc2ccc(Oc3cc4cnn(C)c4cc3-c3cn[nH]c3)c(F)c2)c(=O)n1-c1ccc(F)cc1 [Example 6, N-(3-fluoro-4-(1-methyl-6-(1H-pyrazol-4-yl)-1H-indazol-5-yloxy)phenyl)-1-(4-fluorophenyl)-6-isopropyl-2-oxo-1,2-dihydropyridine-3-carboxamide] yielded an IC50 of 0.66 nM.

Same assay, conditions: Mus musculus, BaF3, Table 4-1; separate test; read-out: Ba/F3 LMNA-NTRK1-G667C, IC50
COc1ccc(C(=O)Nc2ccc(Oc3cc4cnn(C)c4cc3-c3cn[nH]c3)c(F)c2)c(=O)n1-c1ccc(F)cc1 [Example 12, N-(3-fluoro-4-(1-methyl-6-(1H-pyrazol-4-yl)-1H-indazol-5-yloxy)phenyl)-1-(4-fluorophenyl)-6-methoxy-2-oxo-1,2-dihydropyridine-3-carboxamide] gave an IC50 of under 1 nM.
For CCc1ccc(C(=O)Nc2ccc(Oc3cc4cnn(CC)c4cc3-c3cn[nH]c3)c(F)c2)c(=O)n1-c1ccc(F)cc1 [Example 18, N-(3-fluoro-4-(1-ethyl-6-(1H-pyrazol-4-yl)-1H-indazol-5-yloxy)phenyl)-1-(4-fluorophenyl)-6-ethyl-2-oxo-1,2-dihydropyridine-3-carboxamide], the IC50 was 1 nM.
Work on CCn1ncc2cc(Oc3ccc(NC(=O)c4ccc(C5CC5)n(-c5ccc(F)cc5)c4=O)cc3F)c(-c3cn[nH]c3)cc21 [Example 19, N-(3-fluoro-4-(1-ethyl-6-(1H-pyrazol-4-yl)-1H-indazol-5-yloxy)phenyl)-1-(4-fluorophenyl)-6-cyclopropyl-2-oxo-1,2-dihydropyridine-3-carboxamide] yielded an IC50 of 2 nM.
For CCn1ncc2cc(Oc3ccc(NC(=O)c4ccc(OC)n(-c5ccc(F)cc5)c4=O)cc3F)c(-c3cn[nH]c3)cc21 [Example 23, N-(3-fluoro-4-(1-ethyl-6-(1H-pyrazol-4-yl)-1H-indazol-5-yloxy)phenyl)-1-(4-fluorophenyl)-6-methoxy-2-oxo-1,2-dihydropyridine-3-carboxamide], the IC50 was 1 nM.

Same assay, conditions: Mus musculus, BaF3, Table 4-2; separate test; read-out: Ba/F3 LMNA-NTRK1-G667C, IC50
In the case of CSc1ccc(C(=O)Nc2ccc(Oc3cc4cnn(C)c4cc3-c3cn[nH]c3)c(F)c2)c(=O)n1-c1ccc(F)cc1 [Example 11, N-(3-fluoro-4-(1-methyl-6-(1H-pyrazol-4-yl)-1H-indazol-5-yloxy)phenyl)-1-(4-fluorophenyl)-6-methylthio-2-oxo-1,2-dihydropyidine-3-carboxamide], the IC50 is reported as 10.5 nM.
CCOc1ccc(C(=O)Nc2ccc(Oc3cc4cnn(C)c4cc3-c3cn[nH]c3)c(F)c2)c(=O)n1-c1ccc(F)cc1 [Example 14, N-(3-fluoro-4-(1-methyl-6-(1H-pyrazol-4-yl)-1H-indazol-5-yloxy)phenyl)-1-(4-fluorophenyl)-6-ethoxy-2-oxo-12-dihydropyridine-3-carboxamide] showed an IC50 of 8.6 nM.
In the case of Cn1ncc2cc(Oc3ccc(NC(=O)c4ccc(OC5CC5)n(-c5ccc(F)cc5)c4=O)cc3F)c(-c3cn[nH]c3)cc21 [Example 15, N-(3-fluoro-4-(1-methyl-6-(1H-pyrazol-4-yl)-1H-indazol-5-yloxy)phenyl)-1-(4-fluorophenyl)-6-cyclopropoxy-2-oxo-1,2-dihydropyridine-3-carboxamide], the IC50 is reported as 10.8 nM.
Work on CC(C)Oc1ccc(C(=O)Nc2ccc(Oc3cc4cnn(C)c4cc3-c3cn[nH]c3)c(F)c2)c(=O)n1-c1ccc(F)cc1 [Example 16, N-(3-fluoro-4-(1-methyl-6-(1H-pyrazol-4-yl)-1H-indazol-5-yloxy)phenyl)-1-(4-fluorophenyl)-6-isopropoxy-2-oxo-1,2-dihydropyridine-3-carboxamide] yielded an IC50 of 10.7 nM.
CCn1ncc2cc(Oc3ccc(NC(=O)c4ccc(OC(C)C)n(-c5ccc(F)cc5)c4=O)cc3F)c(-c3cn[nH]c3)cc21 [Example 26, N-(3-fluoro-4-(1-ethyl-6-(1H-pyrazol-4-yl)-1H-indazol-5-yloxy)phenyl)-1-(4-fluorophenyl)-6-isopropoxy-2-oxo-1,2-dihydropyridine-3-carboxamide] was tested, and the IC50 was 17.5 nM.

Same assay, conditions: Mus musculus, BaF3, Table 9; read-out: Ba/F3 LMNA-NTRK1-G667C cell proliferation inhibitory activity (IC50)
COc1ccc(C(=O)Nc2ccc(Oc3cc4cnn5c4c(c3-c3cn[nH]c3)CC5)c(F)c2)c(=O)n1-c1ccc(F)cc1 [Example 28, N-(4-((5-(1H-pyrazol-4-yl)-6,7-dihydropyrrolo[3,2,1-hi]-indazol-4-yl)oxy)-3-fluorophenyl)-1-(4-fluorophenyl)-6-methoxy-2-oxo-1,2-dihydropyidine-3-carboxamide] was tested, and the IC50 was 19.8 nM.
Cc1ccc(C(=O)Nc2ccc(Oc3cc4cnn5c4c(c3-c3cn[nH]c3)CC5)c(F)c2)c(=O)n1-c1ccc(F)cc1 [Example 31, N-(4-((5-(1H-pyrazol-4-yl)-6,7-dihydropyrrolo[3,2,1-hi]-indazol-4-yl)oxy)-3-fluorophenyl)-1-(4-fluorophenyl)-6-methyl-2-oxo-1,2-dihydropyridine-3-carboxamide] gave an IC50 of 33 nM.
In the case of CCOc1ccc(C(=O)Nc2ccc(Oc3cc4cnn5c4c(c3-c3cn[nH]c3)CC5)c(F)c2)c(=O)n1-c1ccc(F)cc1 [Example 32, N-(4-((5-(1H-pyrazol-4-yl)-6,7-dihydropyrrolo[3,2,1-hi]-indazol-4-yl)oxy)-3-fluorophenyl)-6-ethoxy-1-(4-fluorophenyl)-2-oxo-12-dihydropyridine-3-carboxamide], the IC50 is reported as 19 nM.

Same assay, conditions: Table 4-2; separate test; read-out: Ba/F3 LMNA-NTRK1-G667C, IC50
CCOc1ccc(C(=O)Nc2ccc(Oc3cc4cnn(CC)c4cc3-c3cn[nH]c3)c(F)c2)c(=O)n1-c1ccc(F)cc1 [Example 24, N-(3-fluoro-4-(1-ethyl-6-(1H-pyrazol-4-yl)-1H-indazol-5-yloxy)phenyl)-1-(4-fluorophenyl)-6-ethoxy-2-oxo-12-dihydropyridine-3-carboxamide] gave an IC50 of 17.3 nM.
